Data: patent US20220331303A1, “USE OF AN OREXIN 2 RECEPTOR AGONIST FOR THE TREATMENT OF EXCESSIVE SLEEPINESS” (Takeda Pharmaceutical Company Limited, priority 2019, published 2022)

Tested on: sleep-deprived healthy volunteers
Experiment: Karolinska Sleepiness Scale (KSS) in sleep-deprived healthy volunteers
Format: in vivo, human
Conditions: for KSS Mean (SD) / KSS Median / KSS Min / KSS Max: Compound A 112 mg
Procedure: During the day before dosing on Day 1, participants were administered the KSS at scheduled timepoints. A practice MWT session was performed on Day 1 treatment period 1 (only once during the entire study) to familiarize subjects with the procedures. Study drug was administered in the clinic in the evening on Day 1 of each treatment period. Subjects underwent the MWT and KSS at specified timepoints after the start of the infusion. Subjects were required to stay awake between the MWT tests. Following completion of the IV infusion on Day 2, subjects underwent an additional MWT test. When the final MWT test and cognitive testing were completed, subjects were allowed to sleep (recovery sleep) for approximately 6 hours. PSG recording was collected during this time. Subjects were discharged from the unit after completion on Day 2 with continuing actigraphy upon discharge (to begin on Day −6 before the next treatment period). The interval between each subsequent treatment period was at least 7 days to ensure that the subject's circadian rhythm had returned to a normal cycle. Subject's vital signs, including BP, were monitored during the dosing and testing period. Blood samples for determination of Compound A plasma concentrations were collected at specified timepoints on Days 1 and 2 of each treatment period. Subjects completed the Columbia-Suicide Severity Rating Scale (C-SSRS) during screening, before study drug administration, and before discharge on Day 2 of each treatment period.
Secondary endpoints: • PK parameters calculated from plasma concentrations of Compound A. • Scores for sleepiness on the Karolinska Sleepiness Scale (KSS).
The secondary efficacy endpoint was sleepiness/alertness as assessed by KSS at 14, 10, 6, and 2 hours predose (approximately between 7:45 AM to 7:45 PM); 2, 2.75, 4.75, 6.75, and 8.75 hours post infusion start (approximately between mid-night to 7 AM in the morning); and at 1.75 hours post infusion end. A higher value indicates more sleepiness, a lower value indicates more alertness. Prior to infusion, there were no statistically significant differences at any time point of observation in KSS score for Compound A 44 and 112 mg treatments when compared to placebo. […] On the average, for modafinil and Compound A 44 and 112 mg, there were about 1.6 to 3.7 points increase in the KSS postdose/the infusion start, relative to that prior to dosing during the daytime. However, for placebo, the increase in the average KSS is 4.9.

[1] = HD: Compound A 112 mg, 1.75 HOURS POST INFUSION END
[2] = HD: Compound A 112 mg, 2 HOURS PREDOSE
[3] = HD: Compound A 112 mg, 2.75 HOURS POST INFUSION START
[4] = HD: Compound A 112 mg, 4.75 HOURS POST INFUSION START
[5] = HD: Compound A 112 mg, 6 HOURS PREDOSE
[6] = HD: Compound A 112 mg, 6.75 HOURS POST INFUSION START
[7] = HD: Compound A 112 mg, 8.75 HOURS POST INFUSION START
[8] = HD: Compound A 112 mg, 10 HOURS PREDOSE
[9] = HD: Compound A 112 mg, 14 HOURS PREDOSE
[10] = HD: Compound A 112 mg, DELTA: AVERAGE POST - AVERAGE PRIOR
[11] = LD: Compound A 44 mg, 1.75 HOURS POST INFUSION END
[12] = LD: Compound A 44 mg, 2 HOURS PREDOSE
[13] = LD: Compound A 44 mg, 2.75 HOURS POST INFUSION START
[14] = LD: Compound A 44 mg, 4.75 HOURS POST INFUSION START
[15] = LD: Compound A 44 mg, 6 HOURS PREDOSE
[16] = LD: Compound A 44 mg, 6.75 HOURS POST INFUSION START
[17] = LD: Compound A 44 mg, 8.75 HOURS POST INFUSION START
[18] = LD: Compound A 44 mg, 10 HOURS PREDOSE
[19] = LD: Compound A 44 mg, 14 HOURS PREDOSE
[20] = LD: Compound A 44 mg, DELTA: AVERAGE POST - AVERAGE PRIOR

For `COC(=O)N1CCC[C@H](NS(C)(=O)=O)[C@@H]1CO[C@H]1CC[C@@H](c2ccccc2)CC1` [Compound A, methyl (2R,3S)-3-((methylsulfonyl)amino)-2-(((cis-4-phenylcyclohexyl)oxy)methyl)piperidine-1-carboxylate], which “KSS Mean (SD)” value (6.75 HOURS POST INFUSION START) is on record?
Its value is 5.2 (1.72).

And the “KSS Median” value (6.75 HOURS POST INFUSION START)?
The value was 5.0.

What about the “KSS Min” value (6.75 HOURS POST INFUSION START) of the same compound?
The value was 2.

And the “KSS Max” value (8.75 HOURS POST INFUSION START)?
Its value is 9.

What about the “KSS Mean (SD)” value (8.75 HOURS POST INFUSION START) of the same compound?
Its value is 6.1 (1.95).

And the “KSS Median” value (8.75 HOURS POST INFUSION START)?
The value was 6.0.

What about the “KSS Min” value (8.75 HOURS POST INFUSION START) of the same compound?
The value was 3.

And the “KSS Max” value (10 HOURS PREDOSE)?
The value was 7.

And the “KSS Mean (SD)” value (10 HOURS PREDOSE)?
The value was 2.5 (1.47).

And the “KSS Median” value (10 HOURS PREDOSE)?
Its value is 2.0.

What about the “KSS Min” value (10 HOURS PREDOSE) of the same compound?
The value was 1.

What about the “KSS Max” value (14 HOURS PREDOSE) of the same compound?
The value was 7.

And the “KSS Mean (SD)” value (14 HOURS PREDOSE)?
The value was 3.3 (1.74).

What about the “KSS Median” value (14 HOURS PREDOSE) of the same compound?
Its value is 3.0.

And the “KSS Min” value (14 HOURS PREDOSE)?
Its value is 1.

And the “KSS Sleepy/Alert LS Mean” value [1]?
The value was 8.01.

And the “KSS Sleepy/Alert LS Mean Difference vs Placebo Estimate” value (“KSS Sleepy/Alert LS Mean Difference” below) [1]?
The value was −0.14.

And the “KSS Sleepy/Alert LS Mean” value [2]?
Its value is 3.46.

What about the “KSS Sleepy/Alert LS Mean Difference” value [2] of the same compound?
The value was −0.44.

What about the “KSS Sleepy/Alert LS Mean” value [3] of the same compound?
Its value is 3.24.

What about the “KSS Sleepy/Alert LS Mean Difference” value [3] of the same compound?
Its value is −3.61.

What about the “KSS Sleepy/Alert LS Mean” value [4] of the same compound?
Its value is 3.85.

And the “KSS Sleepy/Alert LS Mean Difference” value [4]?
Its value is −4.30.

What about the “KSS Sleepy/Alert LS Mean” value [5] of the same compound?
The value was 2.51.

What about the “KSS Sleepy/Alert LS Mean Difference” value [5] of the same compound?
Its value is −0.29.

What about the “KSS Sleepy/Alert LS Mean” value [6] of the same compound?
The value was 5.18.

What about the “KSS Sleepy/Alert LS Mean Difference” value [6] of the same compound?
The value was −3.32.

And the “KSS Sleepy/Alert LS Mean” value [7]?
The value was 6.07.

And the “KSS Sleepy/Alert LS Mean Difference” value [7]?
Its value is −2.26.

What about the “KSS Sleepy/Alert LS Mean” value [8] of the same compound?
Its value is 2.51.

What about the “KSS Sleepy/Alert LS Mean Difference” value [8] of the same compound?
The value was 0.01.

And the “KSS Sleepy/Alert LS Mean” value [9]?
The value was 3.29.

What about the “KSS Sleepy/Alert LS Mean Difference” value [9] of the same compound?
The value was 0.24.

What about the “KSS Sleepy/Alert LS Mean” value (HD: Compound A 112 mg, AVERAGE POST INFUSION START (2.75, 4.75, 6.75 AND 8.75 HOURS)) of the same compound?
Its value is 4.58.

And the “KSS Sleepy/Alert LS Mean” value (HD: Compound A 112 mg, AVERAGE PRIOR TO INFUSION START (14, 10, 6, 2 HOURS PREDOSE))?
Its value is 2.95.

And the “KSS Sleepy/Alert LS Mean” value [10]?
The value was 1.64.

What about the “KSS Sleepy/Alert LS Mean Difference” value [10] of the same compound?
Its value is −3.26.

And the “KSS Sleepy/Alert LS Mean” value [11]?
The value was 8.46.

And the “KSS Sleepy/Alert LS Mean Difference” value [11]?
Its value is 0.31.

And the “KSS Sleepy/Alert LS Mean” value [12]?
Its value is 4.01.

What about the “KSS Sleepy/Alert LS Mean Difference” value [12] of the same compound?
The value was 0.11.

What about the “KSS Sleepy/Alert LS Mean” value [13] of the same compound?
The value was 4.85.

And the “KSS Sleepy/Alert LS Mean Difference” value [13]?
Its value is −2.00.

What about the “KSS Sleepy/Alert LS Mean” value [14] of the same compound?
The value was 6.46.

What about the “KSS Sleepy/Alert LS Mean Difference” value [14] of the same compound?
Its value is −1.69.

And the “KSS Sleepy/Alert LS Mean” value [15]?
The value was 2.79.

And the “KSS Sleepy/Alert LS Mean Difference” value [15]?
Its value is −0.01.

What about the “KSS Sleepy/Alert LS Mean” value [16] of the same compound?
Its value is 7.79.

And the “KSS Sleepy/Alert LS Mean Difference” value [16]?
The value was −0.71.

And the “KSS Sleepy/Alert LS Mean” value [17]?
The value was 8.07.

What about the “KSS Sleepy/Alert LS Mean Difference” value [17] of the same compound?
Its value is −0.26.

What about the “KSS Sleepy/Alert LS Mean” value [18] of the same compound?
Its value is 2.79.

What about the “KSS Sleepy/Alert LS Mean Difference” value [18] of the same compound?
The value was 0.29.

And the “KSS Sleepy/Alert LS Mean” value [19]?
The value was 2.85.

What about the “KSS Sleepy/Alert LS Mean Difference” value [19] of the same compound?
The value was −0.20.

And the “KSS Sleepy/Alert LS Mean” value (LD: Compound A 44 mg, AVERAGE POST INFUSION START (2.75, 4.75, 6.75 AND 8.75 HOURS))?
The value was 6.79.

And the “KSS Sleepy/Alert LS Mean” value (LD: Compound A 44 mg, AVERAGE PRIOR TO INFUSION START (14, 10, 6, 2 HOURS PREDOSE))?
The value was 3.11.

And the “KSS Sleepy/Alert LS Mean” value [20]?
Its value is 3.68.

What about the “KSS Sleepy/Alert LS Mean Difference” value [20] of the same compound?
The value was −1.22.
